Test system: fungi and bacteria on leaf explants
Assay: Leaf disinfection of cacao leaf explants (hypochlorite under vacuum)
Parameters: species or system Theobroma cacao; cacao leaf disinfection: dose or concentration left out as unconfirmed
Experimental: The leaves were cleaned with soap and rinsed with distilled sterile water for three times. Afterwards, the leaves were cut in pieces in sizes of 2 cm^2, disinfected by immersion in alcohol 70% for five minutes, and rinsed three times with ultrapure sterile water. Then, the leaf explants were immersed in 1% calcium hypochlorite or 20% sodium hypochlorite for 50-60 minutes in vacuum condition (70 k-pascal) and rinsed 3-5 times with ultrapure sterile water.

[Ca+2].[O-]Cl.[O-]Cl [calcium hypochlorite] was tested, and the “leaf death after disinfection” value (high concentration of calcium hypochlorite) was “high percentage of leaf death” and the cacao leaf disinfection (low concentration of calcium hypochlorite for 40 minutes, with vacuum) was “best treatment for cacao leaf disinfection”.
